Experimental data taken from patent publication US20220325245A1 (Board of Regents, The University of Texas System, priority 2019, published 2022).
Like-named read-outs stand apart in the source and are kept apart here.

How the values were obtained:
CLL = conditions: alone or in combination with a corticosteroid; cited from earlier work
[1] = target: CD19 on CD19+ Raji cells and primary CLL cells (UniProt P15391); test: cell-based or functional assay
[2] = cited from earlier work
[3] = cited from earlier work; remark: listed apart in the source
NT CB-NK cells = test: Dimerizer effect on non-transduced cells (annexin-V/7AAD staining); type: cell-based; conditions: 10 nM dimerizer
Text: iC9/CAR.19/IL15+ CB-NK cells are eliminated after activation of the suicide gene by exposure to a small-molecule dimerizer. To counteract the possibility of excessive toxicity mediated by the release of inflammatory cytokines by transduced CB-NK cells or uncontrolled NK cell growth, we incorporated a suicide gene based on the inducible caspase-9 gene in the construct (Di et al., 2011). […] The suicide gene was also effective in vivo.

GVHD = conditions: patients who had received Capsase-9+ T cells; cited from earlier work

Sequence of UniProt P15391 (P15391 20-556 limits assumed): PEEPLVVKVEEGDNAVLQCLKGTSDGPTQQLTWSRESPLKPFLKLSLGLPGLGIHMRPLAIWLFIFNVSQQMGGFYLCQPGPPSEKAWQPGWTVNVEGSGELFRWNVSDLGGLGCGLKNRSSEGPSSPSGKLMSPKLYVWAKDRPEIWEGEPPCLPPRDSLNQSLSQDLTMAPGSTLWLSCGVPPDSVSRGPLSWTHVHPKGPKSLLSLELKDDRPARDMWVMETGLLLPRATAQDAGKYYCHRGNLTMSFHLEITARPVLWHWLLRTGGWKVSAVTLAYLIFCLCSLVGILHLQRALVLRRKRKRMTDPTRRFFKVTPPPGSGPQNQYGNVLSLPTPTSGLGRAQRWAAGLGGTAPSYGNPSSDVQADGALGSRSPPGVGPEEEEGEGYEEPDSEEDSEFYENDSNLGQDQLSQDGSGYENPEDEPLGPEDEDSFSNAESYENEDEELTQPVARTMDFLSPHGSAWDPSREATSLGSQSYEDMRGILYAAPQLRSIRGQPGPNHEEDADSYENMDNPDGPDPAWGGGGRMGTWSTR

Compound: O=C(O)CCCc1ccc(N(CCCl)CCCl)cc1 [chlorambucil]
- complete remission rates (CLL): 5-20%
- overall response rate (CLL): 50-70%

Compound: anti-CD19 chimeric antigen receptor (scFv against CD19, human IgG CH2-CH3 hinge, CD28 transmembrane domain, CD28.CD3zeta signaling endodomain) expressed on cord blood NK cells from the iC9/CAR.19/IL15 retroviral vector
- IL15 release in culture supernatant with CD19+ CLL B cells (pg/mL/10^6 cells) [1]: 27.6

Compound: RhIL-15: exogenous recombinant human IL-15
- maximum serum concentration (Cmax) ([2]; 0.3 μg/kg per day): 1,260±350 pg/mL
- maximum serum concentration (Cmax) ([2]; 1.0 μg/kg per day): 15,900±1,900 pg/mL
- maximum serum concentration (Cmax) ([2]; 3.0 μg/kg per day): 43,800±18,300 pg/mL
- dose-limiting toxicities ([2]; 3.0 and 1.0 μg/kg per day): grade 3 hypotension, thrombocytopenia, and elevations of ALT and AST
- maximum-tolerated dose ([2]; bolus infusions for 12 consecutive days): 0.3 μg/kg per day
- immune cell activation ([2]; patients): activate NK cells, monocytes, γδ, and CD8 T cells

Compound: CC[C@H](C(=O)N1CCCC[C@H]1C(=O)O[C@H](CCc1ccc(OC)c(OC)c1)c1cccc(OCC(=O)NCCNC(=O)COc2cccc([C@@H](CCc3ccc(OC)c(OC)c3)OC(=O)[C@@H]3CCCCN3C(=O)[C@@H](CC)c3cc(OC)c(OC)c(OC)c3)c2)c1)c1cc(OC)c(OC)c(OC)c1 [AP1903]
- plasma concentrations ([3]; 0.01 mg/kg to 1.0 mg/kg dose range): 10 to 1275 ng/mL
- plasma level, percent of maximum ([3]; 0.5 hrs post dose): 18%
- plasma level, percent of maximum ([3]; 2 hrs post dose): 7%
- viability of NT CB-NK cells (NT CB-NK cells): no effect
- time to response of GVHD (GVHD): 24 to 48 h
